Like-named read-outs stand apart in the source and are kept apart here.
What was measured:
IRE1α [1] = test: IRE1α XBP1 splicing luciferase reporter, HEK293 cells; assay type: cell-based, human; conditions: for COX-2-dependent stimulation of XBP1 mRNA splicing (IRE1α activity): HEK293, COX-2 siRNA vs scrambled, 24 hours, thapsigargin 0.5 µM, tunicamycin 5 µg/ml, DTT 1 mM, n = 16, Fig. 1D
Procedure: HEK293 cells (human embryonic kidney cells; https://web.expasy.org/cellosaurus/CVCL_0045) were maintained under standard tissue culture conditions, including 5% CO2 with high humidity. Tissue culture media included 10% fetal bovine serum in DMEM (Sigma). Cell transfection, analysis of cell viability and luciferase assays were carried out as described previously.
The pRL-IXFL XBP1 splicing reporter was a generous gift from Dr. R. Kaufman (Sanford Burnham Medical Discovery Institute) and contains an internal Renilla control and the nucleotide sequence encoding XBP1 followed by firefly luciferase separated by an internal ribosomal entry site (IRES) initiation region. This reporter will only generate firefly luciferase if the XBP1 sequence is spliced, bringing the firefly luciferase sequence to the correct reading frame.

[2] = target: T1, IRE1-NLD (ER luminal domain of IRE1α) (Homo sapiens, UniProt O75460); test: SPR, binding to immobilized IRE1-NLD; conditions: CM5 chip, 10 mM Hepes pH 7.4, 150 mM NaCl, 0.005% P20, 30 μl/min, triplicate, 10 µM COX-2, BiP, PDIA6 flowed
T1 construct: the ER luminal domain of IRE1α (IRE1-NLD); His6 (C); KDEL (ER retention signal) (C); made in house; host or cells: COS-1 cells
T1 sequence (O75460 19-443 limits assumed): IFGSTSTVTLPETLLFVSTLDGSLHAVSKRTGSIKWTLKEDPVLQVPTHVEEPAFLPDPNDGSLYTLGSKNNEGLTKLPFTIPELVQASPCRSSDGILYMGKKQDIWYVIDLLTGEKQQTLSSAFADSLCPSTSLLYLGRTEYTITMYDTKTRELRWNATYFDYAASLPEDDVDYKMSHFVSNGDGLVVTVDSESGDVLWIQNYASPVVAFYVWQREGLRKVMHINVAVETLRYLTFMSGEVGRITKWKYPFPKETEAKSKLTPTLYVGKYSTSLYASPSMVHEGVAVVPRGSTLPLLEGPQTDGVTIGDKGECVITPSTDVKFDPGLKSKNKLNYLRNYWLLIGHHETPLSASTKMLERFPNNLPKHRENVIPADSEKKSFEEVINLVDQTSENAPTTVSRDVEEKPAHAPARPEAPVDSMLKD
Procedure: Briefly, a CM5 chip was activated using a 1:1 dilution of EDC:NHS as previously described. Purified protein was diluted in 10 mM NaAc, pH 5 and injected over the activated CM5 chip followed by the blocking solution of 1 M ethanolamine, pH 9. A reference lane with no ligand coupled was generated to subtract background binding. The running buffer was composed of 10 mM Hepes, pH 7.2, 150 mM NaCl, 1 mM EDTA, 0.005% P20, and 2% ethanol. […] For each experiment, the signal was corrected against the control surface response to eliminate any refractive index changes due to buffer change. The data were collected at 25 °C at a flow rate of 30 µl/min to minimize mass transfer effects. Positive (cyclophilin) and negative controls (carbonic anhydrase) were included. Kinetic analysis was performed using the BiaEvaluation software (GE Life Sciences) with a 1:1 Langmuir binding model. Association and dissociation rates and affinity (KD) were calculated for each experiment and averaged. The binding response signals in RUs were continuously recorded and presented graphically as a function of time. For SPR analysis of COX-2 interaction with IRE1-NLD, the carboxymethylated dextran (CMD) surface of a CM5 chip was activated using a 1:1 dilution of EDC:NHS as previously described. Purified IRE1-NLD was captured at a flow rate of 5 μl/min to a total of ~1500 Response Units (RU). […]

IRE1-NLD = test: MST, COX-2 titrated to RED-labeled IRE1-NLD; assay type: binding; conditions: red labelled IRE1-NLD, Suppl. Fig. S9
Procedure: (§1) MST was carried out using a Monolith NT.115 instrument (NanoTemper). To evaluate COX-2 binding to IRE1-NLD, an increasing concentration of purified COX-2 protein (0–10 µM) was incubated with RED-labeled purified IRE1-NLD protein (NanoTemper; as per manufacturer’s protocol). The reverse was also performed, with RED-labeled purified COX-2 incubated with an increasing concentration of purified IRE1-NLD. Positive (cyclophilin A) and negative controls (carbonic anhydrase) were included. […] Positive (cyclophilin A) and negative controls (carbonic anhydrase) were included. […] Experiments were done in triplicate and data evaluation was performed using the Monolith software (NanoTemper).

IRE1α [3] = test: Co-immunoprecipitation of endogenous COX-2 and IRE1α, HEK293 cells; assay type: binding, human; conditions: HEK293, triplicate, Fig. 5A
Procedure: For immunoprecipitation experiments, HEK293 (endogenous IRE1α) or COS-1 cells transfected with the pED-IRE1-NLD-His6-KDEL expression vector were harvested by washing with cold Tris-buffered saline followed by scraping into cold lysis buffer (25 mM Tris-Cl, pH 8.0, 150 mM NaCl, 0.5% Nonidet P-40, and 0.5% sodium deoxycholate). The lysate was incubated on ice for 30 min followed by centrifugation and 30 min incubation at 4 °C with 60 µl of 10% slurry of Protein A/G Sepharose beads (Qiagen) to preclear the lysate. The beads were centrifuged briefly to pellet and washed with five times of cold lysis buffer while the supernatant was transferred to a new Eppendorf tube. For immunoprecipitation of IRE1α, IRE1-NLD or COX-2, 2 µl of anti-IRE1α, anti-His-tag antibodies, COX-2 antibody or an IgG control were added to the supernatant and incubated with rotation overnight at 4 °C. To pull-down the antibody, 100 µl of 10% slurry of Protein A/G Sepharose beads was added and the lysate was incubated 4 hours with rotation at 4 °C. The beads were centrifuged briefly to pellet and washed five times with 1 ml cold lysis buffer. The beads were pelleted, re-suspended in 100 µl SDS-PAGE sample buffer, with 20 µl separated on SDS-PAGE (10% acrylamide), followed by Immunoblot analysis using anti-IRE1α, anti-COX-2, or anti-His-tag antibodies. Experiments were done in triplicate.

COX-2 = target: T2, COX-2 (Homo sapiens, UniProt P35354); assay type: binding
T2 construct: COX-2 cDNA was purchased from OriGene and cloned into pET-22b containing a 6His-tag; 6His; made in house; host or cells: LEMO21 E. coli
T2 sequence (P35354 18-604): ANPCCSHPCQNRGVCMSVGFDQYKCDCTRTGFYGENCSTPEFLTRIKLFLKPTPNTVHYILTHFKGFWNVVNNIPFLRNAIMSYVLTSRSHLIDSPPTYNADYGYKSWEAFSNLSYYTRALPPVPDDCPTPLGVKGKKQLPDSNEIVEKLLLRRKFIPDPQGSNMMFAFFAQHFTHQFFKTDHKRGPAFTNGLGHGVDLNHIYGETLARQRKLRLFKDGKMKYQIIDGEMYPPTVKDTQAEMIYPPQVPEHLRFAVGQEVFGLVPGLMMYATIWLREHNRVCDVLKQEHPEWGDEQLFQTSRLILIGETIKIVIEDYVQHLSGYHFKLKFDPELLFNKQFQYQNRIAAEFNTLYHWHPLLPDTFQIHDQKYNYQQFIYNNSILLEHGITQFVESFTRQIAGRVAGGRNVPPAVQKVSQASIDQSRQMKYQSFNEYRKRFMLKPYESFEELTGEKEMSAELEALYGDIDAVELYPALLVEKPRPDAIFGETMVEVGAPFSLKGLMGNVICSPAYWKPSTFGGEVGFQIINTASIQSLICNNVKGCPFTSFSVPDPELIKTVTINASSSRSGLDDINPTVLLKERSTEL
Procedure: as §1

COX-2 peroxidase = conditions: stated without reference; cited from earlier work
Description: Next, we carried out XBP1 splicing reporter assays in the presence of inhibitors of COX-2 cyclooxygenase or peroxidase activity.

O[C@@H](CS)[C@@H](O)CS [DTT]
COX-2-dependent stimulation of XBP1 mRNA splicing (IRE1α activity) (IRE1α [1]): did not have any effect on COX-2-dependent stimulation of XBP1 mRNA splicing

Cc1ccc(-c2cc(C(F)(F)F)nn2-c2ccc(S(N)(=O)=O)cc2)cc1 [celecoxib]
XBP1 splicing reporter activity with COX-2 inhibitor (IRE1α [1]): had no effect on the XBP1 splicing activity in the absence or presence of COX-2 silencing

C/C=C(/C)C(=O)O[C@H]1C(C)=C2[C@H]([C@@H]1OC(=O)CCCCCCC)[C@@](C)(OC(C)=O)C[C@H](OC(=O)CCC)[C@@]1(O)[C@H]2OC(=O)[C@@]1(C)O [thapsigargin]
COX-2-dependent stimulation of XBP1 mRNA splicing (IRE1α activity) (IRE1α [1]): did not have any effect on COX-2-dependent stimulation of XBP1 mRNA splicing

COX-2: purified COX-2 protein, 6His-tag, expressed in LEMO21 E. coli cells
Kd [2]: 880 nM | binding to IRE1-NLD (MST), wild-type and H374Y (IRE1-NLD): bound to IRE1-NLD | co-immunoprecipitation with endogenous IRE1α (IRE1α [3]): co-immunoprecipitated with endogenous IRE1α

sodium ortho-vanadate
XBP1 splicing reporter activity with COX-2 inhibitor (IRE1α [1]; 20 μM cyclosporine + inhibitor, in absence or presence of COX-2 silencing, Suppl. Fig. S5B): significant reduction of XBP1 splicing in the presence of COX-2, but not when COX-2 was silenced | effect on cyclosporine binding to COX-2 (COX-2): not affected | COX-2 peroxidase inhibition (COX-2 peroxidase): an inhibitor of COX-2 peroxidase activity

tunicamycin
COX-2-dependent stimulation of XBP1 mRNA splicing (IRE1α activity) (IRE1α [1]): did not have any effect on COX-2-dependent stimulation of XBP1 mRNA splicing

Reference: PMC6232179 (Scientific Reports, 2018)
